Measurements as given in patent publication US12686846B2, “Plant sweet and yeast MSF transporter capable of transporting different sugars simultaneously” (THE BOARD OF TRUSTEES OF THE UNIVERSITY OF ILLINOIS, priority 2020, dated 2026).
Entries after “also recorded” stand apart in the source; their conditions may differ.

Columns and labels:
Assay type in all cases: cell-based
[1] = target: T1, Arabidopsis thaliana AtSWEET1 transporter, wild type, SEQ ID NO: 1 (Arabidopsis thaliana, UniProt Q8L9J7); experiment: C14 labeled sugar uptake assay, SR8D8 expressing AtSWEET1; details: in words; FIGS. 7B and 7D legend: FIG. 7G
T1 construct: whole-cell 14C sugar uptake
T1 sequence (Q8L9J7 1-247): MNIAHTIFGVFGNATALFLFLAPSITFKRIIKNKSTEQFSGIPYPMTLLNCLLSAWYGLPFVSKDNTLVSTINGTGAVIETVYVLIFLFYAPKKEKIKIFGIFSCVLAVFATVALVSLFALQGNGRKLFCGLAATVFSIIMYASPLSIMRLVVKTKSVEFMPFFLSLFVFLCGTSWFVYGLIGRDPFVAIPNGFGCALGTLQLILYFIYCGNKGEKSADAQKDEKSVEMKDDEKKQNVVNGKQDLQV
Method: FIG. 7A illustrates sugar uptake kinetics by SR8D8. FIG. 7B illustrates sugar uptake kinetics by SR8D8 expressing AtSWEET1. FIG. 7C illustrates sugar uptake kinetics by SR8D8 expressing ScGal2. FIG. 7D illustrates sugar uptake kinetics by SR8D8 expressing AtSWEET7. FIG. 7E illustrates sugar uptake kinetics by SR8D8 expressing LST1_205437. Initial xylose uptake (20 s) was measured at 30° C. over a concentration range of 1 to 500 mM xylose. FIG. 7F illustrates sugar uptake kinetics by SR8D8. FIG. 7G illustrates sugar uptake kinetics by SR8D8 expressing AtSWEET1. FIG. 7H illustrates sugar uptake kinetics by SR8D8 expressing ScGal2. FIG. 7I illustrates sugar uptake kinetics by SR8D8 expressing AtSWEET7. FIG. 7J illustrates sugar uptake kinetics by SR8D8 expressing LST1_205437. Initial glucose uptake (5 s) was measured at 30° C. over a concentration range of 0.2 to 100 mM glucose. […]
A xylose fermenting S. cerevisiae yeast (SR8) with HXT1-7Δ, GAL2Δ deletions was used for transporter screening and characterization (SR8D8). […] Biomass was calculated from the OD600 measured using a Biomate 5 UV-visible spectrophotometer (Fisher, NY, USA). All growth rates were measured using a Bioscreen C plate reader system (Growth Curves USA, Piscataway, NJ, USA). […]
Uptake was measured at sugar concentrations 0.2, 1, 5, 25, and 100 mM for glucose and 1, 5, 25, 66, 100, 200, and 500 mM for xylose. […]

[2] = target: T2, Arabidopsis thaliana AtSWEET7 transporter, wild type (Table 2: SEQ ID NO: 3; FIG. 12: SEQ ID NO:2) (Arabidopsis thaliana, UniProt Q8LBF7); experiment: Inhibition of xylose uptake by glucose, SR8D8 expressing AtSWEET7; details: 25 mM and 100 mM glucose; in words
T2 construct: expressed in transfected cells; host or cells: S. cerevisiae SR8D8 (SR8 with HXT1-7 and GAL2 deleted), plasmid p42K-GPD1p-CYC1t
T2 sequence (Q8LBF7 1-258): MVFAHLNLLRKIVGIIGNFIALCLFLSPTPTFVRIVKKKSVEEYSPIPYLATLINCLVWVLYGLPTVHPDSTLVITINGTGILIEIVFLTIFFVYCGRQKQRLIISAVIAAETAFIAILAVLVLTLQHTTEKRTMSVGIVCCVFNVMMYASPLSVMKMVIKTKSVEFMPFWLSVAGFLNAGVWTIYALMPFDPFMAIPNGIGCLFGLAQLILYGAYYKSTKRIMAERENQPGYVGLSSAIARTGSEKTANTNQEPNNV
Method: (§1) Symbols: glucose (square), xylose (triangle up), DCW (circle), ethanol (triangle down), glycerol (diamond). […] Global curve fitting for Michaelis-Menten kinetics with competitive inhibition was applied to data of three independent measurements at each concentration.
(§2) SR8D8 containing the respective plasmid was grown on selective YPE medium to an OD600 of 1-1.5, harvested by centrifugation, and washed twice in ice-cold uptake buffer (100 mM potassium phosphate, pH 6.5). C14 labeled sugar uptake assay was done according to Boles and Oreb. Radioactivity was analyzed in a Beckman-Coulter LS6500 multi-purpose liquid scintillation counter (Beckman-Coulter, CA, USA).
(§3) Sugar solutions contained 0.135-0.608 μCi of D-[U-^14C]-glucose (290-300 mCi/mmol) or D-[1-^14C]-xylose (55 mCi/mmol) (PerkinElmer, MA, USA). Calculation of Km (Michaelis constant), Vmax (maximal initial uptake velocity), and K (inhibitor constant for competitive inhibition) was done by nonlinear regression analysis and global curve fitting in Prism 7 (GraphPad Software) with values of three independent measurements.

[3] = target: T3, Lipomyces starkeyi LST1_205437 transporter, wild type, SEQ ID NO: 4 (Lipomyces starkeyi, UniProt A0A1E3QE37); experiment: Inhibition of xylose uptake by glucose, SR8D8 expressing LST1_205437; details: 25 mM or 100 mM glucose; in words
T3 construct: whole-cell 14C sugar uptake
T3 sequence (A0A1E3QE37 1-603): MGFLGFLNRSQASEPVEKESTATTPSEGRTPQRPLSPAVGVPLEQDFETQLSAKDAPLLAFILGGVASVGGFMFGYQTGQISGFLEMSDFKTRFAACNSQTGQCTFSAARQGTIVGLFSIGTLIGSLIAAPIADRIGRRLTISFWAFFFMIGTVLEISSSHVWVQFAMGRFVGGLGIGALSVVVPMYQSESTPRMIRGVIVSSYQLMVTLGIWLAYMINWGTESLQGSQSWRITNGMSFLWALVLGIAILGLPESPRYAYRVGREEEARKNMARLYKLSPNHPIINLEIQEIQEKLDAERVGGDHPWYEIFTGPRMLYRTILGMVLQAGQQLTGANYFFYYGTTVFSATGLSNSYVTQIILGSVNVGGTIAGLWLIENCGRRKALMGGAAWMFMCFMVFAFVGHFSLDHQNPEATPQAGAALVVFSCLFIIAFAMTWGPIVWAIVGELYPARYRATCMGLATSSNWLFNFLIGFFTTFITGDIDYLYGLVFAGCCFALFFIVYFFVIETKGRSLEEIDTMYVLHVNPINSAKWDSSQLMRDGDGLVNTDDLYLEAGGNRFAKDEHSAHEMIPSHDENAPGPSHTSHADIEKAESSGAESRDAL
Method: as §1, §2, §3

OC[C@H]1OC(O)[C@H](O)[C@@H](O)[C@@H]1O (stereo partly drawn) [Glucose]
glucose transport kinetics [1]: transports glucose more efficiently as compared to AtSWEET7 | inhibition of xylose transport by glucose [2]: no inhibition of xylose transport by glucose; also recorded: do not have any xylose transport inhibition | inhibition of xylose transport by glucose [3]: less inhibited by glucose than those by ScGal2; also recorded: glucose concentration dependent inhibition of xylose transport
